Test results published in patent US20220168268A1, “SMALL-MOLECULE INHIBITOR OF PD-1/PD-L1, PHARMACEUTICAL COMPOSITION THEREOF WITH PD-L1 ANTIBODY, AND APPLICATION OF SAME” (Guangzhou Maxinovel Pharmaceuticals Co., Ltd., priority 2019, published 2022).
“And” between values parts separate entries of the source, which are not always exact repeats. Equal entries are not always repeated.

Biological target: T1, PD-1/PD-L1 (Homo sapiens, UniProt Q9NZQ7)
T1 construct: unspecified kit tag (tag1 or tag2, recognised by the detection antibodies); purchased CisBio 64CUS000C-1
Assay: Homogeneous Time-Resolved Fluorescence (HTRF) PD-1/PD-L1 binding assay
Conditions: CisBio kit
Method: Homogenouse Time-Resolved Fluorescence (HTRF) binding assay was used to determine the binding activity of the compound of the present disclosure to PD-1/PD-L1.
The purchased kit (CisBio, #64CUS000C-1) contained the reagents required for experiments such as PD-1, PD-L1, anti-tagl-Eu, Anti-tag2-XL665, Dilute Buffer and Detection Buffer.
1. The compound was formulated to 10 concentrations with a three-fold concentration gradient with 100% DMSO.
2. The solution of the compound in DMSO was added to Dilute Buffer, and mixed evenly and then transferred to a 96-well plate.
3. PD-L1 was diluted with Dilute Buffer and added to the 96-well plate above.
4. PD-1 was diluted with Dilute Buffer, then added to the 96-well plate above and incubated at room temperature for 30 minutes.
5. One portion of anti-tag1-Eu and one portion of anti-tag2-XL665 were added to Detection Buffer, mixed evenly and transferred to the 96-well plate above.
6. The mixed solution in the 96-well plate were incubated at room temperature for 1 to 24 hours.
7. HTRF values were read by Envision.

T1 sequence (Q9NZQ7 19-238 limits assumed): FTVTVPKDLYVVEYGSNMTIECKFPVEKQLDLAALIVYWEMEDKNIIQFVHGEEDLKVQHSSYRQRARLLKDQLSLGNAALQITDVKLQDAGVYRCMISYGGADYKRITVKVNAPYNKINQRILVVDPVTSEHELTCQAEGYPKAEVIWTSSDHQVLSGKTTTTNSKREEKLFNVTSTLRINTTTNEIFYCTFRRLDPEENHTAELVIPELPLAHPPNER

Row | IC50 | Compound
1 | 13 nM | Cc1c(/C=C/c2cc(CNC(CO)C(=O)O)ccc2C(F)(F)F)cccc1-c1ccccc1F (stereo not shown) [Compound 13, (E)-2-(3-(2-(2′-fluoro-2-methylbiphenyl-3-yl)vinyl)-4-(trifluoromethyl)benzylamino)-3-hydroxypropanoic Acid]
2 | 41 nM | Cc1ccc(CN[C@@](C)(CO)C(=O)O)cc1/C=C/c1cccc(-c2ccccc2)c1C [Compound 31, (S,E)-2-(3-(2-(2-methylbiphenyl-3-yl)vinyl)-4-methylbenzylamino)-3-hydroxy-2-methylpropanoic Acid]
3 | 19 nM | Cc1ccc(CN[C@@H](CO)C(=O)O)cc1/C=C/c1cccc(-c2ccc3c(c2F)OCCO3)c1C [Compound 14, (S,E)-2-(3-(3-(5-fluoro-2,3-dihydrobenzo[b][1,4]dioxin-6-yl)-2-methylstyryl)-4-methylbenzylamino)-3-hydroxypropanoic Acid]
4 | 18 nM | Cc1c(/C=C/c2cc(CN[C@](C)(CO)C(=O)O)ccc2C(F)(F)F)cccc1-c1ccccc1 [Compound 27, (R,E)-2-(3-(2-(2-methylbiphenyl-3-yl)vinyl)-4-(trifluoromethyl)benzylamino)-3-hydroxy-2-methylpropanoic Acid]
5 | 66 nM | Cc1c(/C=C/c2cc(CNC(C)(CO)C(=O)O)ccc2F)cccc1-c1ccc2c(c1)OCCO2 (stereo not shown) [Compound 25, (E)-2-(3-(3-(2,3-dihydrobenzo[b][1,4]dioxin-6-yl)-2-methylstyryl)-4-fluorobenzylamino)-3-hydroxy-2-methylpropanoic Acid]
6 | 29 nM | Cc1ccc(CN[C@@](C)(CO)C(=O)O)cc1/C=C/c1cccc(-c2ccccc2)c1C [Compound 28, (S,E)-2-(3-(2-(2-methylbiphenyl-3-yl)vinyl)-4-methylbenzylamino)-3-hydroxy-2-methylpropanoic Acid]
7 | 13 nM | Cc1c(/C=C/c2cc(CN[C@@H](CO)C(=O)O)ccc2C(F)(F)F)cccc1-c1ccc2c(c1F)OCCO2 [Compound 16]
8 | 23 nM | Cc1c(/C=C/c2cc(CNC(C)(CO)C(=O)O)ccc2C(F)(F)F)cccc1-c1ccccc1 (stereo not shown) [Compound 5, (E)-2-(3-(2-(2-methylbiphenyl-3-yl)vinyl)-4-(trifluoromethyl)benzylamino)-3-hydroxy-2-methylpropanoic Acid]
9 | 230 nM | C[C@@](CO)(NCc1ccc(C(F)(F)F)c(/C=C/c2cccc(-c3ccccc3)c2F)c1)C(=O)O [Compound 33, (S,E)-2-(3-(2-(2-fluorobiphenyl-3-yl)vinyl)-4-(trifluoromethyl)benzylamino)-3-hydroxy-2-methylpropanoic Acid]
10 | 42 nM | Cc1ccc(CNC(C)(CO)C(=O)O)cc1/C=C/c1cccc(-c2ccccc2)c1C (stereo not shown) [Compound 8, (E)-2-(3-(2-(2-methylbiphenyl-3-yl)vinyl)-4-methylbenzylamino)-3-hydroxy-2-methylpropanoic Acid]
11 | 1100 nM | Cc1c(/C=C/c2cc(CN[C@@](C)(CO)C(=O)O)ccc2C(F)(F)F)cccc1-c1ccc2ncoc2c1 [Compound 35, (S,E)-2-(3-(3-(benzo[d]oxazol-6-yl)-2-methylstyryl)-4-(trifluoromethyl)benzylamino)-3-hydroxy-2-methylpropanoic Acid]
12 | 44 nM | Cc1c(CCc2cc(CNC(C)C(=O)O)ccc2C(F)(F)F)cccc1-c1ccccc1 (stereo not shown) [Compound 22, 2-(3-(2-(2-Methylbiphenyl-3-yl)ethyl)-4-(trifluoromethyl)benzylamino) propanoic Acid]
13 | 24 nM | Cc1c(/C=C/c2cc(C(C)NCC(=O)O)ccc2C(F)(F)F)cccc1-c1ccccc1 (stereo not shown) [Compound 32, (E)-2-(1-(3-(2-(2-methylbiphenyl-3-yl)vinyl)-4-(trifluoromethyl)phenyl)ethylamino)acetic Acid]
14 | > 10000 nM | Cc1c(/C=C/c2cc(CN[C@@](C)(CO)C(=O)O)ccc2C(F)(F)F)cccc1-c1ccc2cnoc2c1 [Compound 38, (S,E)-2-(3-(3-(benzo[d]isoxazol-6-yl)-2-methylstyryl)-4-(trifluoromethyl)benzylamino)-3-hydroxy-2-methylpropanoic Acid]

System: not listed separately
Assay: Pharmacokinetic experiment in mice (iv and oral gavage)
Assay type: in vivo
Conditions: mouse, whole blood; CD1 male mice; tail vein 2 mg/kg and oral gavage 10 mg/kg
Text: Glipizide (molecular formula was C21H27N5O4S, molecular weight was 445.5 g/mol, Analytical Reagent) purchased from Sigma-Aldrich (U.S.A.), was used as the internal standard for analysis. Methanol, acetonitrile and formic acid (HPLC grade) were purchased from Sigma-Aldrich (U.S.A.), and pure water was purchased from Hangzhou Wahaha Group Co., Ltd. (Hangzhou, China). Other chemical reagents were all analytical reagents.
CD1 male mice, six per group, 6-7 weeks old, 29-31 g, were purchased from LC Laboratory Animal Co. LTD. Before the experiment, the animals should be kept for at least 3 days to adapt to the environment. Throughout the experiment, the animals were required to fast overnight, and allowed to drink water freely during the period, and the surviving animals resumed feeding 4 hours after administration.
1. The compound was formulated into a solution with a concentration of 0.4 mg/mL with 10% DMSO, 10% Solutol HS 15 and 80% Saline.
2. The above prepared solution was administered to 3 mice by tail vein injection (compound dosage was 2 mg/kg), and was administered to another 3 mice by oral gavage (compound dosage was 10 mg/kg) simultaneously.
3. Approximately 30 μL of blood was collected from each of the above 6 mice at 5 minutes, 15 minutes, 30 minutes, 1 hour, 2 hours, 4 hours, 8 hours and 24 hours after administration into the EDTA-K2 anticoagulation tube (set on wet ice), and 20 μL of blood was immediately diluted with 60 μL of water, and then put in the refrigerator at −70° C. for long-term storage until the sample was analyzed.
4. 20 μL of the above solution was transfered into a 96-well deep well sample plate, and 150 μL of glipizide internal standard acetonitrile solution (the concentration was 100 ng/mL) was added, vortexed for 10 min, and centrifuged at […] for 10 min 1 μL of the supernatant was taken for LCMSMS analysis.
5. Based on the drug concentration-time data, WinNonlin 6.4 software (USA) was used to calculate the pharmacokinetic parameters of the compound according to the non-compartment model.

Row | bioavailability | Compound
15 | 16.1% | Cc1c(/C=C/c2cc(CNC(CO)C(=O)O)ccc2C(F)(F)F)cccc1-c1ccccc1F (stereo not shown) [Compound 13, (E)-2-(3-(2-(2′-fluoro-2-methylbiphenyl-3-yl)vinyl)-4-(trifluoromethyl)benzylamino)-3-hydroxypropanoic Acid]
16 | 3.08% | COc1cc(/C=C/c2cccc(-c3ccccc3)c2C)cc(OC)c1CN[C@@H](CO)C(=O)O
17 | 52.3% | Cc1c(/C=C/c2cc(CN[C@](C)(CO)C(=O)O)ccc2C(F)(F)F)cccc1-c1ccccc1 [Compound 27, (R,E)-2-(3-(2-(2-methylbiphenyl-3-yl)vinyl)-4-(trifluoromethyl)benzylamino)-3-hydroxy-2-methylpropanoic Acid]
18 | 3.89% | COc1cc(/C=C/c2cccc(-c3ccccc3)c2C)cc(OC)c1CN[C@@](C)(CO)C(=O)O
19 | 4.42% | COc1cc(/C=C/c2cccc(-c3ccccc3)c2C)cc(OC)c1CN[C@](C)(CO)C(=O)O
20 | 5.98% | Cc1c(/C=C/c2cc(CNC(C)(CO)C(=O)O)ccc2C(F)(F)F)cccc1-c1ccc2c(c1)OCCO2 (stereo not shown)

System: colon cancer MC-38-hPD-L1
Assay: In vivo pharmacodynamics in hPD-1 knock-in mouse colon cancer MC-38-hPD-L1 model
Design: species or system C57BL/6-hPD-1 mice
Conditions: Durvalumab 20 mg/kg, IP, BIW; D19; mean ± SEM
Method: In vivo pharmacodynamics study of PD-L1 antibody Durvalumab and compound 29 used singly or in combination in hPD-1 knock-in mouse colon cancer MC-38-hPD-L1 model
Antibody: PD-L1 antibody Imfinzi (Durvalumab), 120 mg/2.4 mL (50 mg/mL), Lot: 041E17C. Manufacturer: AstraZeneca, purchased from Hong Kong Mingchuang Pharmacy Co., Ltd., stored at 2-8° C.
Experimental animals: Human PD-1 transgenic mice, strain: C57BL/6-hPD-1 mice, 6-8 weeks, weighing 18-21 grams, female, 120 mice, purchased from GemPharmatech Co., Ltd.
Human PD-L1 gene was knocked into MC-38 cells (MC-38-hPD-L1 cells), MC-38 cells was adherent cultured in vitro in DMEM medium with 10% heat-inactivated fetal bovine serum and hygromycinB (final concentration […]) at 37° C. under 5% CO2.
Passage cultivation was conducted three times a week. The cells were collected and counted at the exponential growth phase. 100 μL 1×10^6 MC-38-hPD-L1 cells suspension was inoculated into the right dorsal subcutaneous of C57BL/6-hPD-1 mice. 6 days after inoculation, 60 tumor-bearing mice with transplanted tumor volume ranging from 31.49 mm^3-110.26 mm^3 were selected, the mice were randomly divided into 6 groups, with 10 in each group, according to the experimental plan, and administration was started on the same day.
Preparation of vehicle: 800 mL sterile water was measured and added to volumertic flask. Magnetic stirring was carried out to produce vortex on the liquid surface. An aqueous solution of 10% (w/v) Cremophor RH40+20% (w/v) SBE-β-CD was obtained by slow addition of 100 g Cremophor RH40, followed by 200 g SBE-β-CD, and water to fix the solution volume to 1000 mL with fully stirring.
Preparation of Compound 29 suspension: 150.92 mg compound 29 was weighed and 12.5 […] 10% (w/v) Cremophor RH40+20% (w/v) SBE-β-CD (hereinafter referred to as vehicle) aqueous solution was added. A suspension was with a concentration of 12.0 mg/mL was obtained by fully mixing with vortexing for 2 minutes and ultrasonic treatment for 30 minutes. 5.0 mL of the suspension of compound 29 with a concentration of 12.0 mg/mL was pipetted, and 5.0 mL of vehicle was added to the suspension. The suspension with a concentration of 6.0 mg/mL was obtained by fully mixing with vortexing for 1 minute and ultrasonic treatment for 5 minutes. 2.0 mL of the suspension of compound 29 with a concentration of 12.0 mg/mL was pipetted, and 6.0 mL of vehicle was added to the suspension. The suspension with a concentration of 3.0 mg/mL was obtained by fully mixing with vortexing for 1 minute and ultrasonic treatment for 5 minutes. The suspension of compound 29 was prepared once a day.
Preparation of PD-L1 antibody: […] of Durvalumab stock solution (concentration: 50 mg/mL) was pipetted and divided into 6 portions in 5 mL sterile centrifuge tube, with 6.0 mg in each portion, then the portions were stored in a 4° C. refrigerator for late use. Before administration, 0.12 mL of stock solution (concentration: 50 mg/mL) was pipetted, 2.88 mL of 0.9% sodium chloride solution was added to the stock solution. 3 mL of the solution of Durvalumab with a final concentration 2 mg/mL was obtained by shaking slightly and fully vortexing.
1) The mice in the vehicle control group were weighed and recorded in an electronic balance according to the number. The mice in the vehicle control group were administered by oral gavage with vehicle according to the weight twice a day with a capacity of 0.1 mL/10 g. The time for administration was about 20 s for each mouse, and about 5 minutes in total for each group of 10 mice. 2) The mice in the compound 29 (30 mg/kg) group were weighed and recorded in an electronic balance according to the number. The mice in this group were administered by oral gavage with the prepared Compound 29 suspension according to the weight twice a day with a dosage of 30 mg/kg and a capacity of 0.1 mL/10 g. The time for administration was about 20 s for each mouse, and about 5 minutes in total for each group of 10 mice. […]

Row | Compound | Tumor Volume
21 | Durvalumab: PD-L1 antibody Imfinzi (Durvalumab), 50 mg/mL, manufacturer AstraZeneca [reference compound] | 341.19 ± 56.59/D19 mm^3

Same assay, conditions: Durvalumab 20 mg/kg, IP, BIW; D19; vs vehicle control

Row | Compound | TGI (tumor inhibition rate)
22 | Durvalumab: PD-L1 antibody Imfinzi (Durvalumab), 50 mg/mL, manufacturer AstraZeneca [reference compound] | 48.17% and 48.17/D19%
